Test results reported in publication PMC3929664, “A Panel of Diverse Assays to Interrogate the Interaction between Glucokinase and Glucokinase Regulatory Protein, Two Vital Proteins in Human Disease” (PLoS ONE, 2014).
Values belong to the molecule of their own block, whether it stands above or below them.

Assays:
[1] = target: T1, recombinant human GST-GCK (Homo sapiens, UniProt P35557); type: biochemical; conditions: 4 nM GCK, 37.5 mM glucose, fit accounting for substrate inhibition, mean ± SD; read-out: ATP Km
T1 construct: GST (glutathione-S-transferase); made in house
T1 sequence (P35557 1-465): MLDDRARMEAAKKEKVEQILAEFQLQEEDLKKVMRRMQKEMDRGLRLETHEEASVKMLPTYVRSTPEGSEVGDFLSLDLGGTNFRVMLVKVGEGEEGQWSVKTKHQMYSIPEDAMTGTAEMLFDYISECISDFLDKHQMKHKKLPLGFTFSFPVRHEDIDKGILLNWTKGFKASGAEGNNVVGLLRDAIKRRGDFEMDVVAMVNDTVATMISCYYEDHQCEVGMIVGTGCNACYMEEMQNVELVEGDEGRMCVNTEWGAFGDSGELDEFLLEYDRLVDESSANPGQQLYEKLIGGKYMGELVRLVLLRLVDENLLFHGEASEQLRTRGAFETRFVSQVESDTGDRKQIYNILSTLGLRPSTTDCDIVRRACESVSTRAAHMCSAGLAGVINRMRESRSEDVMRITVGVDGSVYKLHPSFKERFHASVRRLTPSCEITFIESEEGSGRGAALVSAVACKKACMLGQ
Experimental: The ATP Km for GCK was determined by fluorescent monitoring of NADH oxidation using a dual-coupling system whereby generation of ADP by GCK was coupled to oxidation of NADH via PK and LDH (Figure S2A) [37]. The final reaction contained 4 nM GCK, glucose in five-fold excess of the calculated glucose S0.5 (37.5 mM), and ATP concentrations ranging from 0 to 2 mM. The reaction was initiated by addition of ATP and read immediately, then every 10 seconds for 5 minutes. Each ATP concentration was tested in quadruplicate. The initial slopes (v0) for each concentration were determined by linear regression (GraphPad Prism, GraphPad Software, San Diego, CA, USA), and then v0 was plotted against ATP concentration (Figure S2B).
(A) Reaction scheme of PK/LDH dual-coupled assay. The reaction included 4 nM GCK. (B) Reaction progress over the first 60 seconds was monitored by the loss of NADH fluorescence at 450 nm using a ViewLux Microplate Imager and results analyzed by linear regression. Resultant slopes from regression were plotted and the curve fit using nonlinear regression accounting for substrate inhibition in GraphPad Prism to give a best-fit Km value.

[2] = test system: GCK (recombinant GST-GCK); conditions: cited from earlier work
[3] = test system: cryopreserved pooled male Sprague-Dawley rat hepatocytes; assay: GCK translocation in cryopreserved rat hepatocytes (high-content imaging); type: cell-based; conditions: 2 hours
Experimental: Plateable cryopreserved pooled male Sprague-Dawley rat hepatocytes (lot number NPD) were thawed and plated (40,000 cells/well) in Biocoat black/clear collagen-coated 96-well plates (BD Biosciences, San Jose, CA, USA) in InVitroGRO™ CP Rat medium supplemented with Torpedo™ Antibiotic Mix (BioreclamationIVT). After hepatocyte attachment, media was changed to InVitroGRO™ HI Rat medium with Torpedo™ Antibiotic Mix.
Hepatocytes were fixed in 4% PFA for 15 minutes. PFA was then removed and cells were washed twice in Dulbecco’s phosphate-buffered saline (DPBS) containing 0.2% Triton-X and then permeabilized for 10 minutes with DPBS/0.2% Triton-X. Cells were then treated for 30 minutes with Odyssey protein blocking buffer (Li-cor Biosciences, Lincoln, NE, USA) before addition of a mouse monoclonal IgG2a GKRP antibody [GCKR (A-8); Santa Cruz Biotechnology, Inc., Santa Cruz, CA, USA]. The antibody (200 µg/ml) was diluted (1∶50) in protein blocking buffer and incubated with cells for 120 minutes. Cells were then washed (4×5 minutes) in PBS/0.1% Tween-20 before addition of protein blocking buffer containing Alexa Fluor® 647 Goat Anti-Mouse IgG (H+L) (Invitrogen; 1∶500 dilution) and rabbit polyclonal GCK antibody [1∶30 dilution; GCK (H-88) 200 µg/ml; Santa Cruz Biotechnology]. After 60 minutes, cells were washed with PBS/0.1% Tween-20 (4×5 minutes). […]

[4] = test system: cryopreserved human hepatocytes; assay: GCK translocation in cryopreserved human hepatocytes (GKRP-positive cells); type: cell-based
Experimental: Plateable cryopreserved human hepatocytes (female, lot number TRZ; male, lot number FOS) were plated at 50,000 cells/well in Biocoat black/clear collagen-coated 96-well plates in InVitroGRO™ CP medium supplemented with Torpedo™ Antibiotic Mix. After hepatocyte attachment, media was changed to InVitroGRO™ HI medium with Torpedo™ Antibiotic Mix.
Hepatocytes were fixed in 4% PFA for 15 minutes. PFA was then removed and cells were washed twice in Dulbecco’s phosphate-buffered saline (DPBS) containing 0.2% Triton-X and then permeabilized for 10 minutes with DPBS/0.2% Triton-X. Cells were then treated for 30 minutes with Odyssey protein blocking buffer (Li-cor Biosciences, Lincoln, NE, USA) before addition of a mouse monoclonal IgG2a GKRP antibody [GCKR (A-8); Santa Cruz Biotechnology, Inc., Santa Cruz, CA, USA]. The antibody (200 µg/ml) was diluted (1∶50) in protein blocking buffer and incubated with cells for 120 minutes. Cells were then washed (4×5 minutes) in PBS/0.1% Tween-20 before addition of protein blocking buffer containing Alexa Fluor® 647 Goat Anti-Mouse IgG (H+L) (Invitrogen; 1∶500 dilution) and rabbit polyclonal GCK antibody [1∶30 dilution; GCK (H-88) 200 µg/ml; Santa Cruz Biotechnology]. After 60 minutes, cells were washed with PBS/0.1% Tween-20 (4×5 minutes). Following a 60-minute incubation with blocking buffer and goat anti-rabbit IgG-HRP (1∶500 dilution; sc-2004; Santa Cruz Biotechnology), cells were washed with PBS/0.1% Tween-20 (4×5 minutes). Fluorescent detection of the HRP-conjugated secondary antibody was enabled using a 10-minute incubation with fluorescein-conjugated tyramide from the Tyramide Signal Amplification kit (PerkinElmer). The tyramide solution was prepared in DMSO (Sigma-Aldrich) according to the manufacturer’s instructions. Cells were then washed (3×5 minutes) with PBS/0.1% Tween-20 before a final five-minute wash with PBS/0.1% Tween-20 containing 0.02 mg/ml Hoechst 33342 Trihydrochloride Trihydrate (Hoechst; Invitrogen) for visualization of nuclei. After Hoechst staining, all cells were then stored in 100 µl DPBS at 4°C. […]

[5] = target: T1, recombinant human GST-GCK; assay: GCK glucose S0.5 and Hill coefficient by luminescent ADP-Glo assay; type: biochemical; conditions: 4 nM GCK, 4 mM ATP, 45 minutes
Experimental: The glucose S0.5 and Hill coefficient for GCK were calculated using a luminescent assay measuring the production of ADP by GCK (ADP-Glo™ Kinase Assay, Promega Corporation, Madison, WI, USA; see below). Luminescence was measured at 18 glucose concentrations from 0.1 to 100 mM (two separate experiments; each n = 8 for each concentration).
The assay included 4 nM GCK and 4 mM ATP and was terminated after 45 minutes. Each data point is mean ± SEM (n = 8). Curves were fit using nonlinear regression with the allosteric sigmoidal option in GraphPad Prism to determine the S0.5 and Hill coefficient.

[6] = target: T2, GCK-GKRP interaction (recombinant human GST-GCK and FLAG-GKRP) (Homo sapiens, UniProt P35557+Q14397); assay: HTRF assay of the GCK-GKRP protein-protein interaction; type: binding; conditions: 5 nM GCK, 5 nM GKRP, 2 µM S6P, mean ± SD; read-out: IC50 (inhibition of GCK-GKRP interaction, HTRF signal)
T2 construct: made in house
T2 sequence (P35557 1-465): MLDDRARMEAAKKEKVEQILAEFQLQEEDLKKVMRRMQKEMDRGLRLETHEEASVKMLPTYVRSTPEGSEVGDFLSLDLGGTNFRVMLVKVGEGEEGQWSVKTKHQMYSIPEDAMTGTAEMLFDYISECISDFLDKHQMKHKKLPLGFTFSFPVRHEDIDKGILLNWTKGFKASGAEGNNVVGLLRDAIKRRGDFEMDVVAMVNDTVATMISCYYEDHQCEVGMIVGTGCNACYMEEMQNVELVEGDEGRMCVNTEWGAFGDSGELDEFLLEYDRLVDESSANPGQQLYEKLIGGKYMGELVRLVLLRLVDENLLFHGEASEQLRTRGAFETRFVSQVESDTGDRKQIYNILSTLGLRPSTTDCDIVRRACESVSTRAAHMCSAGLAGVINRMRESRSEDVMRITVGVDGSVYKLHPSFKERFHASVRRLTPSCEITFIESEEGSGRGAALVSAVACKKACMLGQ
T2 sequence (Q14397 1-625): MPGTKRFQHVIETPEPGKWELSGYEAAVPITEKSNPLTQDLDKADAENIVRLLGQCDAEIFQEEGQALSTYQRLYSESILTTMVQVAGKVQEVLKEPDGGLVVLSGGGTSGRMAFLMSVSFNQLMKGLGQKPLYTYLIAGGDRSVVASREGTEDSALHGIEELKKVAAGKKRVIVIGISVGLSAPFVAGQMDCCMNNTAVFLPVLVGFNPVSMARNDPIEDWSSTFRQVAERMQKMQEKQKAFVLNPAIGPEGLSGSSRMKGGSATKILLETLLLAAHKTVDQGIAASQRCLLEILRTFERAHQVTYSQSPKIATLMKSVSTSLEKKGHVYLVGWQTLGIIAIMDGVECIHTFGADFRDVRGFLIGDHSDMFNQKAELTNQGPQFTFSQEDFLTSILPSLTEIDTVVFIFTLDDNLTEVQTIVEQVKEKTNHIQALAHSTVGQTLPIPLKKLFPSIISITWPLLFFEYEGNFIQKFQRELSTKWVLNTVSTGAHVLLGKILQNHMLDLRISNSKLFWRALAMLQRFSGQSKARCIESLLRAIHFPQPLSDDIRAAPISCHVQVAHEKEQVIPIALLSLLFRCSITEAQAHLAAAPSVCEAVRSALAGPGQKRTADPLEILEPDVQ
Experimental: Homogeneous time-resolved fluorescence (HTRF) technology (Cisbio Bioassays, Bedford, MA, USA) was utilized for antibody-based FRET measurement of the GCK-GKRP protein-protein interaction. Recombinant human GST-GCK and FLAG-GKRP were mixed in an HTRF assay buffer containing 2 mM MgCl2, 25 mM KCl, 25 mM HEPES, 1 mM DTT, 0.1% Tween-20, and 0.025% BSA (all buffer components Sigma-Aldrich). The pH was adjusted to 7.1 by drop-wise addition of 10 N NaOH. […] For assays in 1536-well plate format, the two reaction mixes were dispensed using an Aurora Discovery BioRAPTR Flying Reagent Dispenser (BioRAPTR; Beckman Coulter, Inc., Brea, CA, USA) (3 µl/well for protein-containing buffer; 1 µl/well for detection antibodies) into white 1536-well solid-bottom medium binding plates (Greiner Bio-One, Monroe, NC, USA). […] For the LOPAC^1280 library screen, column 1 was all components with DMSO (maximum signal) and column 3 was no GKRP with DMSO (minimum signal). These two control columns were used for data normalization. The final HTS protocol is in Table S1, and the data have been deposited in PubChem (AID 743207).
S6P, F1P, and glucose were dissolved in water; GKAs were dissolved in DMSO.
The assay was validated using a range (0–150 nM) of GCK and GKRP concentrations at manufacturer-recommended detection antibody concentrations ( Figure 2A ). Fluorescence was measured immediately upon mixing, and every 30 minutes thereafter for a total of 240 minutes. The plate was covered and incubated at room temperature throughout the course of the experiment.
The assay was miniaturized to 1536-well plate format and, concurrently, specificity of detection was validated by using known modulators of the GCK-GKRP interaction.
The EC80 value represents a compromise between the desire for large enough signal enhancement and the need to maintain a binding level that is not too saturated so that it can be outcompeted by compounds of interest. Additionally, this approach enables detection of specific competitors of S6P, which would likely be acting on GKRP as desired, and not on GCK. […] Both glucose and GKAs interfere with the binding of GKRP to GCK and decrease GKRP inhibition, [44], [45], while F1P binds to GKRP and is competitive with respect to S6P [46].

[7] = target: T3, Recombinant glutathione-S-transferase (GST)-tagged human glucokinase (human, UniProt P35557 1-465); assay: AlphaScreen or HTRF; 384-well plate; GST-GCK and FLAG-GKRP each titrated 0-150 nM in solution; anti-GST K (donor) and anti-FLAG XL 665 (acceptor) antibodies; 2 mM MgCl2, 25 mM KCl, 25 mM HEPES, 1 mM DTT, 0.1% Tween-20, 0.025% BSA, pH 7.1; room temperature, read at t = 60 minutes; signal ratio 665 nm/615 nm; conditions: both partners purified
T3 construct: glucokinase (GCK), human; also called GCK; GST-GCK; source: prepared as described previously [24], [35]
T3 sequence (looked up): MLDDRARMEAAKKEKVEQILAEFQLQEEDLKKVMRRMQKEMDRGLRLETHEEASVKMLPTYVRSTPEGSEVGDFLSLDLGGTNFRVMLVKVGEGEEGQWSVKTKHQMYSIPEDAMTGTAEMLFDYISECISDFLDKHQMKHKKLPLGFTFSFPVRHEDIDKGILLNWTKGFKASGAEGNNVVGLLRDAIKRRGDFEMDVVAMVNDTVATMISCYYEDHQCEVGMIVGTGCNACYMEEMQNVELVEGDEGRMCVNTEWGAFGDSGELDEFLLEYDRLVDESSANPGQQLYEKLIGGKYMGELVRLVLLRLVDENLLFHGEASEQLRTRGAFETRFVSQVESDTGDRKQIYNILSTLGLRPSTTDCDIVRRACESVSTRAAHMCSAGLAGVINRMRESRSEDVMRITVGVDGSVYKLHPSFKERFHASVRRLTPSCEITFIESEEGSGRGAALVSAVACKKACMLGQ

[8] = target: T3, Recombinant glutathione-S-transferase …; assay: AlphaScreen or HTRF; 1536-well plate, 4 µl final volume; 5 nM GST-GCK and 5 nM FLAG-GKRP in solution, without S6P or with S6P (2 µM for the inhibitor tests); anti-GST K and anti-FLAG XL 665 antibodies; HTRF assay buffer pH 7.1; room temperature, 60 minutes; signal ratio 665 nm/615 nm; conditions: both partners purified

Molecule: Nc1ncnc2c1ncn2[C@@H]1O[C@H](COP(=O)(O)OP(=O)(O)OP(=O)(O)O)[C@@H](O)[C@H]1O [ATP]
Km [1]: 400 ± 110 µM
Km ([2]; recombinant GST-GCK, read-out: ATP Km, previously described): 400 µM

Hill coefficient ([5]; mean ± SD): 1.53±0.1
glucose S0.5 ([5]; mean ± SD across two experiments): 7.5 ± 0.8 mM
IC50 [6]: 16 ± 1.4 mM
Molecule: OC[C@H]1OC(O)[C@H](O)[C@@H](O)[C@@H]1O (some centres unmarked) [glucose]
cells with translocated GCK ([3]; 2.5 mM glucose): 25%
cells with translocated GCK ([3]; 16.7 mM glucose): 84%
increase in number of translocation-positive cells ([4]; 25 mM glucose compared to 2.5 mM glucose, both lots (TRZ, FOS)): approximately 10%
Hill coefficient, previously reported [2]: 1.6–1.7
glucose S0.5, previously reported [2]: 7.5 to 10 mM

Molecule: OC[C@@H](O)[C@@H](O)[C@H](O)[C@@H](O)CO [sorbitol]
GCK translocation response ([4]; lot FOS): no translocation was observed
GCK translocation response ([4]; lot TRZ, 2.5 mM glucose): approximately four-fold

HTRF signal ratio (665 nm/615 nm) at 5.56 nM of both proteins [7]: 1.77
HTRF signal ratio (665 nm/615 nm) at 5 nM of both proteins, no S6P [8]: 1.87
B1: Recombinant FLAG-tagged human glucokinase regulatory protein (natural protein, UniProt Q14397 1-625, looked up)
chain: MPGTKRFQHVIETPEPGKWELSGYEAAVPITEKSNPLTQDLDKADAENIVRLLGQCDAEIFQEEGQALSTYQRLYSESILTTMVQVAGKVQEVLKEPDGGLVVLSGGGTSGRMAFLMSVSFNQLMKGLGQKPLYTYLIAGGDRSVVASREGTEDSALHGIEELKKVAAGKKRVIVIGISVGLSAPFVAGQMDCCMNNTAVFLPVLVGFNPVSMARNDPIEDWSSTFRQVAERMQKMQEKQKAFVLNPAIGPEGLSGSSRMKGGSATKILLETLLLAAHKTVDQGIAASQRCLLEILRTFERAHQVTYSQSPKIATLMKSVSTSLEKKGHVYLVGWQTLGIIAIMDGVECIHTFGADFRDVRGFLIGDHSDMFNQKAELTNQGPQFTFSQEDFLTSILPSLTEIDTVVFIFTLDDNLTEVQTIVEQVKEKTNHIQALAHSTVGQTLPIPLKKLFPSIISITWPLLFFEYEGNFIQKFQRELSTKWVLNTVSTGAHVLLGKILQNHMLDLRISNSKLFWRALAMLQRFSGQSKARCIESLLRAIHFPQPLSDDIRAAPISCHVQVAHEKEQVIPIALLSLLFRCSITEAQAHLAAAPSVCEAVRSALAGPGQKRTADPLEILEPDVQ
notes: glucokinase regulatory protein (GKRP), encoded by GCKR, human; also called GKRP; FLAG-GKRP; source: prepared as described previously [24], [35]
